Source: patent publication US9220264B2, “Multimeric forms of antimicrobial peptides” (Singapore Health Services Pte Ltd., priority 2008, dated 2015)
In brackets after ≈: the same amount, converted by molar mass. Read-outs that look alike come from different tables or passages of the source. Bridge positions count the residues as written; N and C are the ends. Peptide text beside a SMILES is read from it. I, II: the chains in the order shown.

Legend:
[1] = tested on: Clinical Pseudomonas aeruginosa PA2-PAE 239 DM5790/07 Source: Wound; type: cell-based; conditions: USP Phosphate Buffer pH 7.2, 4 hrs, 35° C.
Protocol: (§1) The method for testing antimicrobial activity of antimicrobial peptides used an absolute killing procedure as described below. The bacterial cultures were grown on Trypticase Soy Agar (TSA) […], and the yeast culture on Sabouraud Dextrose Agar ([…] 35° C. for 16 hours. The organisms were harvested by centrifugation and washing twice in Phosphate buffer, pH 7.2 (United States Pharmacopeia, USP) at 20° C. The freeze-dried antimicrobial compound was dissolved in purified water and distributed into screw-capped plastic tubes at a concentration of 1,000 micro-grams (μg) per ml. These served as stock solutions and were kept at -20° C. On the day of conducting the test, one tube of the stock solution was defrosted and diluted in purified water to a concentration of 500 μg/ml. Thereafter, further dilutions were carried out in either USP Phosphate Buffer, pH 7.2 or other solutions (including but not limited to 10 mM sodium phosphate buffer, pH 7.4, 10 mM potassium buffer 7.2 or 155.2 mM NaCl), to the test concentrations required, normally ranging from 6.25 μg/ml to 50 μg/ml. Ten micro-liters (μl) of the test organism of standardised concentration was inoculated into one ml of the compound test solution of specific test concentration to provide a final count of between 1×10^5 cfu/ml and 1×10^6 cfu/ml as far as possible. The inoculated test solutions were than incubated at 35° C. for 4 hours. The incubation temperature and time may be varied as required. After incubation, the antimicrobial activity of the test solutions was inactivated by a 10-fold dilution in D/E Neutralising Broth (NB). Further dilutions were carried out in the NB, and plated out in TSA for bacteria, and SDA for yeast culture. The plates were incubated at 35° C. for 72 hours. The viable count of the survivor organisms was then determined. As an inoculum control, the test organism was inoculated, parallel to the Test, into the buffer used in the preparation of the test solutions instead and incubated under the same condition as the Test. The viable count of the inoculum control was determined as for the Test. […] The method described above was used for Examples 3-7 and in particular, the method for gentamicin in Example 6 is similar except that gentamicin was substituted for the antimicrobial compound.

[2] = tested on: Clinical Pseudomonas aeruginosa PA4-PAE 249 DM15013 Source: Wound; type: cell-based; conditions: USP Phosphate Buffer pH 7.2, 4 hrs, 35° C.
Protocol: as §1

[3] = tested on: Clinical Pseudomonas aeruginosa PA1-PAE 230 DR4877/07 Source: Sputum; type: cell-based; conditions: USP Phosphate Buffer pH 7.2, 4 hrs, 35° C.
Protocol: as §1

[4] = tested on: Clinical Pseudomonas aeruginosa PA3-PAE 240 DU14476/07 Source: Urine; type: cell-based; conditions: USP Phosphate Buffer pH 7.2, 4 hrs, 35° C.
Protocol: as §1

[5] = tested on: Clinical Pseudomonas aeruginosa Ps-C 07DM023155 Source: Eye; type: cell-based; conditions: USP Phosphate Buffer pH 7.2, 4 hrs, 35° C.
Protocol: as §1

[6] = tested on: Clinical Pseudomonas aeruginosa Ps-D 07DM023104 Source: Eye; type: cell-based; conditions: USP Phosphate Buffer pH 7.2, 4 hrs, 35° C.
Protocol: as §1

[7] = tested on: Clinical Escherichia coli DB16027 Source: Blood; type: cell-based
Protocol: (§2) MICs was determined by broth macrodilution method modified from that described by the National Committee for Clinical Laboratory Standards (NCCL). The Mueller Hinton Broth (MHB) at ⅙ strength and without addition of Ca^2+ and Mg^2+ was used for dilution. Serial twofold dilutions of V2 dimer solution was prepared in MHB (⅙ strength) in test tubes. 1 ml of inoculum of test organisms in MHB (⅙ strength) was added to 1 ml of each dilution of V2 dimer to yield as final concentration of 10^4 to 10^5 colony forming units/ml in each test tube. The tubes were incubated at 35° C. for 16 to 20 hours. A positive control containing only the broth and organism, and a negative control tube containing only the broth were also incubated in parallel to the test samples. The above was repeated for each different test organism in separate experiments. The MIC of V2 dimer peptide for each clinical isolate or reference organism was read as the lowest concentration of peptide that inhibited visible growth of the test organism.
(§3) The MIC was also determined for other peptides and compared to gentamicin.

[8] = tested on: Clinical Pseudomonas aeruginosa PAE 239 DM5790/07 Source: Wound; type: cell-based
Protocol: as §2, §3

[9] = tested on: Clinical Pseudomonas aeruginosa PAE 230 DR4877/07 Source: Sputum; type: cell-based
Protocol: as §2, §3

[10] = tested on: Methicillin-resistant staphylococcus aureus (MRSA) DM09808R Source: Eye; type: cell-based
Protocol: as §2, §3

[11] = tested on: Clinical Cadida albicans DF2672R Source: Urine; type: cell-based, Candida albicans
Protocol: as §2, §3

Kp ATCC 10031 = type: cell-based, Klebsiella pneumoniae; conditions: ATCC 10031, 24 h
Protocol: The minimum inhibitory concentration (MIC) was determined using a broth microdilution method. Different strains of bacterial cells were grown in Mueller Hinton Broth (MHB) overnight. 100 μl of adjusted inoculum in MHB was added to 100 μl of each dilution of peptide or antibiotics dissolved in the broth, so as to yield a final cell density of 10^5 to 10^6 cfu/ml in each well of a microtitre plate. Additional microtitre plates may be used as necessary, if more wells are required for the assay or duplicate plates are required. The microtitre plates were incubated at 35° C. for 24 h and the absorbance at 600 nm (OD600) was monitored every 30 minutes. […] A positive control well contained the broth and organisms (no peptides/antibiotics), and a negative control well contains only the broth. The MIC of peptides for each clinical isolate or reference organism was recorded as the lowest concentration of peptide/antibiotic that inhibited visible growth of the test organism. […]

[12] = tested on: human conjunctival epithelial cells; type: cell-based
Protocol: The results are from four independent experiments and data points show the mean and standard deviations. The X axis indicates the peptide concentration in μg/ml and the Y axis indicates the % cell viability. The cytotoxicity of V2 dimer were tested against human conjunctival cells according to the method described in WO 2007/126392 and compared with native hBD3. […] Wildtype hBD3 was cytotoxic at concentrations of about 15 μg/ml, however, the V2 dimer was not cytotoxic at concentrations of 100 μg/ml.

[13] = tested on: Clinical Pseudomonas aeruginosa PAE 240 DU14476/07 Source: Urine; type: cell-based; conditions: Clinical PAE 240 DU14476/07 Source: Urine
Protocol: as §2, §3

[14] = tested on: Clinical Pseudomonas aeruginosa 07DM 023257 Source: Eye; type: cell-based; conditions: Clinical 07DM 023257 Source: Eye
Protocol: as §2, §3

[15] = tested on: Pseudomonas aeruginosa ATCC 27853; type: cell-based
Protocol: as §2, §3

[16] = tested on: Clinical Pseudomonas aeruginosa 07DM023376 Source: Eye; type: cell-based; conditions: Clinical 07DM023376 Source: Eye
Protocol: as §2, §3

[17] = tested on: Clinical Pseudomonas aeruginosa DM 023104 Source: Eye; type: cell-based; conditions: Clinical DM 023104 Source: Eye
Protocol: as §2, §3

[18] = tested on: Escherichia coli ATCC25922; type: cell-based
Protocol: as §2, §3

[19] = tested on: Clinical Pseudomonas aeruginosa PAE 249 DM15013 Source: Wound; type: cell-based; conditions: Clinical PAE 249 DM15013 Source: Wound
Protocol: as §2, §3

[20] = tested on: Bacillus cereus ATCC 11778; type: cell-based
Protocol: as §2, §3

[21] = tested on: Clinical Escherichia coli DU46381R Source: Urine; type: cell-based
Protocol: as §2, §3

[22] = tested on: Candida albicans ATCC10231; type: cell-based
Protocol: as §2, §3

[23] = tested on: Fusarium solani ATCC 36031; type: cell-based
Protocol: as §2, §3

[24] = tested on: Clinical Staphylococcus aureus DM4001 Source: Eye; type: cell-based
Protocol: as §2, §3

[25] = tested on: Clinical Pseudomonas aeruginosa DM 023155 Source: Eye; type: cell-based; conditions: Clinical DM 023155 Source: Eye
Protocol: as §2, §3

[26] = MHB 1/6 strength, 35° C., 16 to 20 hours
[27] = Clinical PAE 239 DM5790/07 Source: Wound
[28] = Clinical PAE 230 DR4877/07 Source: Sputum

Compound: Gentamicin
- Log Reduction ([1]; 3.125 ug/ml): 3.02
- Log Reduction ([1]; 6.25 ug/ml): 3.07
- Log Reduction ([1]; 12.5 ug/ml): 3.03
- Log Reduction ([1]; 25.0 ug/ml): 3.04
- Log Reduction ([1]; 50.0 ug/ml): 3.31
- Log Reduction ([2]; 3.125 ug/ml): 2.28
- Log Reduction ([2]; 6.25 ug/ml): 2.41
- Log Reduction ([2]; 12.5 ug/ml): 2.50
- Log Reduction ([2]; 25.0 ug/ml): 2.60
- Log Reduction ([2]; 50.0 ug/ml): 2.63
- Log Reduction ([3]; 3.125 ug/ml): 0.22
- Log Reduction ([3]; 6.25 ug/ml): 0.35
- Log Reduction ([3]; 12.5 ug/ml): 0.65
- Log Reduction ([3]; 25.0 ug/ml): 0.54
- Log Reduction ([3]; 50.0 ug/ml): 0.39
- Log Reduction ([4]; 3.125 ug/ml): 3.66
- Log Reduction ([4]; 6.25 ug/ml): 3.76
- Log Reduction ([4]; 12.5 ug/ml): 3.88
- Log Reduction ([4]; 25.0 ug/ml): 4.18
- Log Reduction ([4]; 50.0 ug/ml): 4.57
- Log Reduction ([5]; 3.125 ug/ml): >4.61
- Log Reduction ([5]; 6.25 ug/ml): >4.61
- Log Reduction ([5]; 12.5 ug/ml): >4.61
- Log Reduction ([5]; 25.0 ug/ml): >4.61
- Log Reduction ([5]; 50.0 ug/ml): >4.61
- Log Reduction ([6]; 3.125 ug/ml): >4.33
- Log Reduction ([6]; 6.25 ug/ml): >4.33
- Log Reduction ([6]; 12.5 ug/ml): >4.33
- Log Reduction ([6]; 25.0 ug/ml): >4.33
- Log Reduction ([6]; 50.0 ug/ml): >4.33
- MIC [7, 26]: 0.78 mg/L
- MIC [8, 26]: 25 mg/L
- MIC [9, 26]: 400 mg/L
- MIC [10, 26]: 12.5 mg/L

Compound: CC(C)[C@H](NC(=O)[C@H](CCCCN)NC(=O)[C@H](CCCNC(=N)N)NC(=O)CNC(=O)[C@@H](N)CCCNC(=N)N)C(=O)N[C@H](C(=O)N[C@@H](CCCNC(=N)N)C(=O)N[C@@H](CCCNC(=N)N)C(=O)NCCCC[C@H](NC(=O)[C@H](CCCNC(=N)N)NC(=O)[C@H](CCCNC(=N)N)NC(=O)[C@@H](NC(=O)[C@@H](NC(=O)[C@H](CCCCN)NC(=O)[C@H](CCCNC(=N)N)NC(=O)CNC(=O)[C@@H](N)CCCNC(=N)N)C(C)C)C(C)C)C(=O)N[C@@H](CCCCN)C(=O)O)C(C)C [V2 dimer, (SEQ ID NO: 44)2KK] (I: H-RGRKVVRRKK-OH / II: H-RGRKVVRR; amide I:9-II:C)
- MIC [11]: 12.5 mg/L (≈ 5.46 µM)
- Minimum inhibitory concentration (MIC) (Kp ATCC 10031): 1.4 µM (≈ 3.21 µg/mL)
- cytotoxicity in comparison with native hBD3 [12]: does not show cytotoxicity
- MIC [13]: 6.25 mg/L (≈ 2.73 µM)
- MIC [14]: 12.5 mg/L (≈ 5.46 µM)
- MIC [15]: 12.5 mg/L (≈ 5.46 µM)
- MIC [16]: 12.5 mg/L (≈ 5.46 µM)
- MIC ([7]; Clinical DB16027 Source: Blood): 6.25 mg/L (≈ 2.73 µM)
- MIC [17]: 12.5 mg/L (≈ 5.46 µM)
- MIC [18]: 12.5 mg/L (≈ 5.46 µM)
- MIC [8, 27]: 12.5 mg/L (≈ 5.46 µM)
- MIC [19]: 6.25 mg/L (≈ 2.73 µM)
- MIC [9, 28]: 12.5 mg/L (≈ 5.46 µM)
- MIC [20]: 12.5 mg/L (≈ 5.46 µM)
- MIC [21]: 6.25 mg/L (≈ 2.73 µM)
- MIC [22]: 12.5 mg/L (≈ 5.46 µM)
- MIC [23]: 25 mg/L (≈ 10.9 µM)
- MIC [24]: 12.5 mg/L (≈ 5.46 µM)
- MIC [25]: 12.5 mg/L (≈ 5.46 µM)
- MIC ([10]; Methicillin-resistant DM09808R Source: Eye): 12.5 mg/L (≈ 5.46 µM)

Compound: GIINTLQKYYCRVRGGRCAVLSCLPKEEQIGKCSTRGRKCCRRKK (Homo sapien) [Wildtype hBD3, reference compound]
- concentration at which cytotoxic [12]: about 15 μg/ml

Compound: CC(C)[C@H](NC(=O)[C@H](CCCCN)NC(=O)[C@H](CCCNC(=N)N)NC(=O)CNC(=O)[C@@H](N)CCCNC(=N)N)C(=O)N[C@H](C(=O)N[C@@H](CCCNC(=N)N)C(=O)N[C@@H](CCCNC(=N)N)C(=O)O)C(C)C [V2-8AA, RGRKVVRR] (H-RGRKVVRR-OH; N-terminus and C-terminus assumed)
- MIC [11]: >50 mg/L
- MIC [13]: 25 mg/L (≈ 24.4 µM)
- MIC [14]: >50 mg/L
- MIC [16]: >50 mg/L
- MIC ([7]; Clinical DB16027 Source: Blood): >50 mg/L
- MIC [17]: >50 mg/L
- MIC [18]: >50 mg/L
- MIC [8, 27]: >50 mg/L
- MIC [19]: >50 mg/L
- MIC [9, 28]: >50 mg/L
- MIC [21]: 50 mg/L (≈ 48.7 µM)
- MIC [22]: >50 mg/L
- MIC [23]: >100 mg/L
- MIC [24]: >50 mg/L
- MIC [25]: >50 mg/L
